This is an account of results in ChEMBL document CHEMBL5506062, “Discovery and Optimization of N-Arylated Tetracyclic Dicarboximides That Target Primary Glioma Stem-like Cells” (J Med Chem, 2024).

Holding throughout (format): ADME, organism-based
The nature of data set [1]: Ratio of drug concentration in brain to plasma in female CD-1 mouse at 10 mg/kg, ip measured after 10 to 1440 mins by LC-MS/MS analysis. The following applies: brain and plasma, read-out: K(p,uu,brain).
Data set [2] can be described thus: AUClast in female CD-1 mouse plasma at 10 mg/kg, ip measured after 10 to 1440 mins by LC-MS/MS analysis.
The nature of data set [3]: Cmax in female CD-1 mouse brain at 10 mg/kg, ip measured after 10 to 1440 mins by LC-MS/MS analysis.
Data set [4] is described as follows: Tmax in female CD-1 mouse brain at 10 mg/kg, ip measured after 10 to 1440 mins by LC-MS/MS analysis.
Data set [5] is described as follows: AUClast in female CD-1 mouse brain at 10 mg/kg, ip measured after 10 to 1440 mins by LC-MS/MS analysis. The settings on record: in vivo.
Data set [6] can be described thus: Tmax in female CD-1 mouse plasma at 10 mg/kg, ip measured after 10 to 1440 mins by LC-MS/MS analysis.
Data set [7] in a line: Cmax in female CD-1 mouse plasma at 10 mg/kg, ip measured after 10 to 1440 mins by LC-MS/MS analysis.
Data set [8] can be described thus: Drug concentration in female CD-1 mouse brain at 20 mg/kg, po measured at 30 mins by LC-MS/MS analysis. The following applies: read-out: Ct.
The nature of data set [9]: Cmax in female CD-1 mouse brain at 20 mg/kg, po measured at 90 mins by LC-MS/MS analysis.
The nature of data set [10]: AUClast in female CD-1 mouse brain at 5 mg/kg, iv measured after 0 to 1440 mins by LC-MS/MS analysis. The following applies: in vivo.
Data set [11] is described as follows: Cmax in female CD-1 mouse brain at 5 mg/kg, iv measured after 0 to 1440 mins by LC-MS/MS analysis.
A short description of data set [12]: Tmax in female CD-1 mouse plasma at 20 mg/kg, po measured after 0 to 1440 mins by LC-MS/MS analysis.
Data set [13] is described as follows: Oral bioavailability in female CD-1 mouse plasma at 20 mg/kg measured after 0 to 1440 mins by LC-MS/MS analysis.
The nature of data set [14]: Oral bioavailability in female CD-1 mouse brain at 20 mg/kg measured after 0 to 1440 mins by LC-MS/MS analysis.
Data set [15] is described as follows: Drug concentration in female CD-1 mouse liver at 20 mg/kg, po measured at 30 mins by LC-MS/MS analysis. The settings on record: read-out: Ct.
The nature of data set [16]: Tmax in female CD-1 mouse brain at 5 mg/kg, iv measured after 0 to 1440 mins by LC-MS/MS analysis.
The nature of data set [17]: Cmax in female CD-1 mouse plasma at 5 mg/kg, iv measured after 0 to 1440 mins by LC-MS/MS analysis.
Data set [18] in a line: AUClast in female CD-1 mouse brain at 20 mg/kg, po measured after 0 to 1440 mins by LC-MS/MS analysis. The settings on record: in vivo.
A short description of data set [19]: Tmax in female CD-1 mouse plasma at 5 mg/kg, iv measured after 0 to 1440 mins by LC-MS/MS analysis.
Data set [20] can be described thus: Cmax in female CD-1 mouse plasma at 20 mg/kg, po measured after 0 to 1440 mins by LC-MS/MS analysis.
A short description of data set [21]: AUClast in female CD-1 mouse plasma at 20 mg/kg, po measured after 0 to 1440 mins by LC-MS/MS analysis.
A short description of data set [22]: Drug concentration in female CD-1 mouse plasma at 20 mg/kg, po measured at 30 mins by LC-MS/MS analysis.
Data set [23] is described as follows: Tmax in female CD-1 mouse brain at 20 mg/kg, po measured after 0 to 1440 mins by LC-MS/MS analysis.
Data set [24] in a line: AUClast in female CD-1 mouse plasma at 5 mg/kg, iv measured after 0 to 1440 mins by LC-MS/MS analysis.
A short description of data set [25]: Cmax in female CD-1 mouse brain at 20 mg/kg, po measured after 0 to 1440 mins by LC-MS/MS analysis.

As a reminder, the AUC(0-t) is exposure summed from dosing to a finite time, without extrapolation to infinity. High values mean more exposure, low ones less exposure. Broadly, the Cmax is the peak of the concentration-time curve. In general, Tmax refers to the time at which the peak concentration occurs. As to `COc1ccc(C(=O)C2CC2c2ccc(N3C(=O)[C@@H]4[C@@H]5C=C[C@@H]([C@H]6C[C@@H]56)[C@@H]4C3=O)cc2)cc1` (stereo partly specified), the Kp uu in data set [1] stood at 1.13. Moreover, the AUC(0-t) in data set [2] was 4350 ng·h/mL. Also, the figures for the highest concentration (Cmax) in data set [3] and in data set [7] were 992 ng/g and 887 ng/mL, respectively. Also, the Tmax in [4] is 30 min; in data set [6], 10 min. The AUClast in data set [5] stood at 294638 ng·min/g.

With `COc1ccc(C(=O)C2CC2c2ccc(N3C(=O)[C@@H]4[C@@H]5C=C[C@@H]([C@H]6C[C@@H]56)[C@@H]4C3=O)c(F)c2)cc1Cl` (stereo partly specified), in data set [1], the Kp uu came to 0.5. Further, the AUC(0-t) in data set [2] is 7340 ng·h/mL. For the same compound, the Cmax turned out to be 1110 ng/g in data set [3] and 1970 ng/mL in [7]. For the same compound, the Tmax in data set [4] and in [6] was 30 min throughout. Also, the AUClast in data set [5] was 220405 ng·min/g.

As for `O=C(COc1cnc(N2C(=O)[C@@H]3[C@@H]4C=C[C@@H]([C@H]5C[C@@H]45)[C@@H]3C2=O)nc1)c1ccc(Cl)c(Cl)c1`, the Kp uu in [1] came out at 0.29. The compound also gave an AUC(0-t) in [2] of 4780 ng·h/mL. The Cmax in data set [3] is 978 ng/g; in [7], 3440 ng/mL. Moreover, the Tmax was 30 min in data set [4] and 10 min in data set [6]. The AUClast in data set [5] worked out at 83823 ng·min/g.

Broadly, the bioavailability is the share of a dose that reaches the circulation, judged against a reference dose that is usually intravenous. A low value points to little systemic uptake. In the case of `O=C(COc1ccc(N2C(=O)[C@@H]3[C@@H]4C=C[C@@H]([C@H]5C[C@@H]45)[C@@H]3C2=O)cc1)c1cc(Cl)cc(Cl)c1`, in data set [1], the Kp uu was found to be 2.49. In addition, the figures for the concentration at 0.5 h in data set [8], in data set [15] and in [22] were 1160 ng/g, 11500 ng/g and 1430 ng/mL, respectively. Also, the concentration in data set [9] peaked (Cmax at […]) at 2380 ng/g. For the same compound, the AUC(0-t) in data set [2] was 4830 ng·h/mL; in [21] it was 23100 ng·h/mL; in [24] it was 14800 ng·h/mL. The Cmax was 2530 ng/g in [3]; 3260 ng/g in data set [11]; 12000 ng/mL in data set [17]; 3400 ng/mL in [20]; 1300 ng/mL in [7]; 2380 ng/g in data set [25]. Besides, the AUClast in data set [10] was found to be 767638 ng·min/g; in data set [18], 1774789 ng·min/g; in [5], 720503 ng·min/g. Also, the Tmax in data set [12] is 30 min; in data set [4] it was 90 min; in data set [16], 5 min; in data set [19], 5 min; in [6], 30 min; in data set [23], 90 min. Also, the bioavailability in data set [13] is 39%; in [14], 58%.
